From patent US20190112208A1, “COMPOSITIONS EXHIBITING SYNERGY IN BIOFILM CONTROL” (SOLENIS TECHNOLOGIES, L.P., priority 2017, published 2019)
Read-outs that look alike come from different tables or passages of the source.

Tested on: Pseudomonas putida biofilms
Format: cell-based
Description: In this work the efficacy of the agents alone and in combination were determined by measuring the number of viable cells in model biofilms remaining after treatment. The Minimum Biofilm Eradication value (MBEC) is defined as a 95% reduction in the number of viable cells compared to the untreated control. The relatively non-toxic dispersants are unable to reach that level of killing with physically possible concentrations, thus for those agents the MBEC is considered the highest value tested. Since this value is used as the divisor in the synergy index equation this highest tested value is actually an underestimate of the MBEC and thus synergy index values are also […].
Dose response studies were performed to determine the Minimum Biofilm Eradication Concentration (MBEC) for monochloramine and SDBS alone. The MBEC is defined as the concentration of agent that reduces the viable biofilm population by 95% of the untreated control value as measured by viable plate counts. Experiments were then performed to determine the result of combining the two agents, oxidizing biocide monochloramine and dispersant SDBS, on biofilm populations. The experiments examined three concentrations of monochloramine with four concentrations of SDBS. The SDBA used in the examples was Bio-Soft™ D-4 (Stepan Company, Northfield, Ill.).
M9YG media is a simple minimal salt medium supplemented with 500 mg/L glucose and 0.01% yeast extract. The salts composition is intended to mimic a typical cooling tower water composition. The composition of the media is made using the following procedure: 5XM9 salt composition is mixed using 64 gm Na2HPO4.7H2O, 15 grams KH2PO4, 2.5 gm NaCl and 5 grams NH4Cl in one liter of water. This is divided into 200 ml aliquots and sterilized (by autoclave). To 750 ml of sterile deionized water is added the sterile supplement solutions while stirring. A white precipitate will appear on addition of the CaCl2 but will dissolve with stirring. Supplement solution is 200 ml of 5XM9 composition, 2 ml of 1M MgSO4, 0.1 ml of 1M CaCl2, 20 ml of 20% glucose, 1 ml of 10% yeast extract, and enough water to make 1000 ml of solution. […]
Biofilms were grown on stainless steel 316 coupons in a CDC Biofilm reactor using M9YG minimal salts growth media for a period of twenty-four hours. […] Viable cells released into the fluid were then determined by a plating method.
Synergy indices were calculated as described in Kull et al. as in example 1.
Dose response studies were performed to determine the Minimum Biofilm Eradication Concentration (MBEC) for monochloramine/dichloramine blend (MCA/DCA) and SDBS alone. The MBEC is defined as the concentration of agent that reduces the viable biofilm population by 95% of the untreated control value as measured by viable plate counts. […]

## NCl [MCA, monochloramine]
Example 1, 20 mg/L MCA alone
  % Biofilm reduction: 93.58%
Example 1, 20 mg/L MCA alone, listed as monochloramine
  % Biofilm reduction: greater than 90%

## Sodium dodecylbenzenesulfonates [SDBS]
Example 1, 312 mg/L SDBS alone
  % Biofilm reduction: 48.62%
Example 2, 312 mg/L SDBS alone
  % Biofilm reduction: 84.58%
